Three molecules from patent US7968720B2, “Secondary amines as renin inhibitors” (Actelion Pharmaceuticals Ltd., priority 2006, dated 2011) can be followed below.

This assay deals with T1, recombinant human renin (Homo sapiens, UniProt P00797).
T1 sequence (P00797 67-406): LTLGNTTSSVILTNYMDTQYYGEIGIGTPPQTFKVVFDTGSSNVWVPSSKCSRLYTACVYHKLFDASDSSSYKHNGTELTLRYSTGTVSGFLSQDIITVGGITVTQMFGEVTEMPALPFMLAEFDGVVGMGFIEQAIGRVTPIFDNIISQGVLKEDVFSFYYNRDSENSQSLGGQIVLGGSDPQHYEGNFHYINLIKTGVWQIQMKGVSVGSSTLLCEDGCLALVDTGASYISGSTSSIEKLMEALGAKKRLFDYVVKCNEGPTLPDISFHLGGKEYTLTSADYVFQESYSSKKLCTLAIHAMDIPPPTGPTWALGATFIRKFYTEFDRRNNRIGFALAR
Kind of assay: Primary renin inhibition assay: IC50 in buffer, 384 well MTP (AngI measured by EIA). It is filed as biochemical. The conditions noted are these: human tetradecapeptide (1-14) substrate, incubated at 37° C. for 3 h, AngI quantified by EIA. Here is the method:
1. Enzyme Immuno Assay (EIA) to Estimate AngI Accumulation and Renin Inhibition
1.1 Preparation of AngI-BSA Conjugate
1.3 mg (1 μmol) of AngI [1-10 (Bachem, H-1680)] and 17 mg (0.26 μmol) of BSA (Fluka, 05475) were dissolved in 4 mL of 0.1M phosphate buffer, pH 7.4, after which 2 mL of a 1:100 dilution of glutaraldehyde in H2O (Sigma G-5882) was added dropwise. The mixture was incubated overnight at 4° C., then dialyzed against 2 liters of 0.9% NaCl, twice for 4 h at rt, followed by dialysis against 2 liters of PBS 1× overnight at rt. The solution was then filtered with a Syringe filter, 0.45 μm (Nalgene, Cat. No. 194-2545). The conjugate can be stored in polypropylene tubes in 0.05% sodium azide at 4° C. for at least 12 months.
1.2 Preparation of BSA-AngI Coated MTP
Microtiter plates (MPT384, MaxiSorp™, Nunc) were incubated overnight at 4° C. with 80 μl of AngI (1-10)/BSA conjugate, diluted 1:100'000 in PBS 1× in a teflon beaker (exact dilution dependent on batch of conjugate), emptied, filled with 90 μl of blocking solution [0.5% BSA (Sigma A-2153) in PBS 1×, 0.02% NaN3], and incubated for at least 2 h at rt, or overnight at 4° C. 96 well MTP (MaxiSorp™, Nunc) were coated with 200 μl conjugate and blocked with 250 μl blocking solution as above, except that the blocking solution contained 3% BSA. The plates can be stored in blocking solution at 4° C. for 1 month.
1.3 AngI-EIA in 384 Well MTP
The AngI (1-10)/BSA coated MTP were washed 3 times with wash buffer (PBS 1×, 0.01% Tween 20) and filled with 75 μl of primary antibody solution (anti-AngI antiserum, pre-diluted 1:10 in horse serum), diluted to a final concentration of 1:100'000 in assay buffer (PBS 1×, 1 mM EDTA, 0.1% BSA, pH 7.4). 5 μl of the renin reaction (or standards in assay buffer) (see below) were added to the primary antibody solution and the plates were incubated overnight at 4° C. After the incubation the plates were washed 3 times with wash buffer and incubated with secondary antibody [anti-rabbit IgG, linked to horseradish peroxidase (Amersham Bioscience, NA 934V), diluted 1:2'000 in wash buffer] for 2 h at rt. The plates were washed 3 times with wash buffer and then incubated for 1 h at rt with substrate solution [1.89 mM ABTS (2,2′-azino-di-(3-ethyl-benzthiazolinsulfonate)] (Roche Diagnostics, 102 946) and 2.36 mM H2O2 [30%, (Fluka, 95300] in substrate buffer (0.1M sodium acetate, 0.05M sodium dihydrogen phosphate, pH 4.2). The OD of the plate was read at 405 nm in a microplate reader (FLUOStar Optima from BMG). The production of AngI during the renin reaction was quantified by comparing the OD of the sample with the OD of a standard curve of AngI(1-10), measured in parallel.
2. Primary Renin Inhibition Assay: IC50 in Buffer, 384 Well MTP
The renin assay was adapted from an assay described before (Fischli W. et al., Hypertension, 1991, 18:22-31) and consists of two steps: in the first step, recombinant human renin is incubated with its substrate (commercial human tetradecapeptide renin substrate) to create the product Angiotensin I (AngI). In the second step, the accumulated AngI is measured by an immunological assay (enzyme immuno assay, EIA). The detailed description of this assay is found below. The EIA is very sensitive and well suited for renin activity measurements in buffer or in plasma. Due to the low concentration of renin used in this assay (2 fmol per assay tube or 10 pM) it is possible to measure inhibitor affinities in this primary assay down to low pM concentration.
Recombinant human renin (3 pg/μl) in assay buffer (PBS 1×, 1 mM EDTA, 0.1% BSA, pH 7.4), human tetradecapeptide (1-14) substrate (Bachem, M-1120) [5 μM in 10 mM HCl], hydroxyquinoline sulfate (Fluka, 55100) [30 mM in H2O] and assay buffer were premixed at 4° C. at a ratio of 100:30:10:145. 47.5 μl per well of this premix was transferred into polypropylene plates (MTP384, Nunc). […]

On to `Cc1cc(Cl)c(O[C@@H]2CCN(c3ccc([C@H]4CCNC[C@@H]4C(=O)N(Cc4cc(CNC(=O)C5CC5)ccc4Cl)C4CC4)cn3)C2)c(Cl)c1` [Example 93, (3′R,4′S)-6-[(R)-3-(2,6-Dichloro-4-methyl-phenoxy)-pyrrolidin-1-yl]-1′,2′,3′,4′,5′,6′-hexahydro-[3,4′]bipyridinyl-3′-carboxylic acid {2-chloro-5-[(cyclopropanecarbonyl-amino)-methyl]-benzyl}-cyclopropyl-amide], for which the IC50 – broadly, the concentration at which inhibition is half-maximal – came out at 0.38 nM.

With `CNC(=O)CCc1ccc(Cl)c(CN(C(=O)[C@H]2CNCC[C@@H]2c2ccc(OCc3cc(-c4c(F)ccc(F)c4Cl)no3)cc2)C2CC2)c1` [Example 102, (3R,4S)-4-{4-[3-(2-Chloro-3,6-difluoro-phenyl)isoxazol-5-ylmethoxy]-phenyl}-piperidine-3-carboxylic Acid [2-chloro-5-(2-methylcarbamoyl-ethyl)benzyl]-cyclopropyl-amide], the IC50 was determined as 0.08 nM. In the case of `CNC(=O)OCCc1ccc(Cl)c(CN(C(=O)[C@H]2CNCC[C@@H]2c2ccc(N3CC[C@@H](Oc4c(Cl)cc(C)cc4Cl)C3)nc2)C2CC2)c1` [Example 110, Methyl-carbamic Acid 2-{4-chloro-3-[(cyclopropyl-{(3′R,4′S)-6-[(R)-3-(2,6-dichloro-4-methyl-phenoxy)-pyrrolidin-1-yl]-1′,2′,3′,4′,5′,6′-hexahydro-[3,4′]bipyridinyl-3′-carbonyl}-amino)-methyl]-phenyl}-ethyl Ester], the IC50 stood at 0.39 nM.
